Experimental data reported in paper PMC11079024, “Identification of a family of species-selective complex I inhibitors as potential anthelmintics” (Nature Communications, 2024).
Where “and” joins values, the source holds several entries; their conditions need not be identical. Equal values may be shown once. Read-outs that look alike come from different tables or passages of the source.

Biological target: C. elegans (N2) complex I (NADH:ubiquinone oxidoreductase) (Caenorhabditis elegans, UniProt P24887+Q93873+Q94360)
Assay: biochemical
Format: biochemical
Outline: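 Activity expressed as percent of solvent control. Complex I rate came from DCIP reduction at 600 nm (initial linear slope, 15 min) with NADH and decylubiquinone as substrates, plus antimycin A and KCN, in pH 7.5 KPi/BSA buffer. Isolated, thrice freeze-thawed mitochondria used at 0.2 mg/mL.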

[1] = wild-type C. elegans mitochondria, mean of replicates, read-out: percent (%) in vitro complex I activity relative to solvent control
[2] = wild-type C. elegans mitochondria, single replicate, read-out: percent (%) in vitro complex I activity relative to solvent control
[3] = C. elegans, Mean of replicates, read-out: Complex I activity, dose-response data
[4] = C. elegans, individual replicates (Rep), read-out: Complex I activity, dose-response data

C. elegans (N2) complex I (NADH:ubiquinone oxidoreductase), sequence (Q94360 17-199): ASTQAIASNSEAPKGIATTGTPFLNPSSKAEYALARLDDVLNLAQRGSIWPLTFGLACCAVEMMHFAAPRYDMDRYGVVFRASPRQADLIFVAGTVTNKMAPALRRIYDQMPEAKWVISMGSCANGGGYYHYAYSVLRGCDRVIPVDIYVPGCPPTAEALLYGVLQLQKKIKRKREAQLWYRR
C. elegans (N2) complex I (NADH:ubiquinone oxidoreductase), sequence (P24887 whole entry): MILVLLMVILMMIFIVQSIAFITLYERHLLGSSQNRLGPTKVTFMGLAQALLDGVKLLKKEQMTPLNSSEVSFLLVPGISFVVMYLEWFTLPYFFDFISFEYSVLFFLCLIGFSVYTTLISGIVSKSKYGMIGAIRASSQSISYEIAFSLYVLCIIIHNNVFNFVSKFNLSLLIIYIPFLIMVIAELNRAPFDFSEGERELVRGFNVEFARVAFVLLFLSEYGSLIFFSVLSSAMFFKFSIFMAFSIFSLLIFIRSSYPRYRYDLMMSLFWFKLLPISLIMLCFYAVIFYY
C. elegans (N2) complex I (NADH:ubiquinone oxidoreductase), sequence (Q93873 31-482): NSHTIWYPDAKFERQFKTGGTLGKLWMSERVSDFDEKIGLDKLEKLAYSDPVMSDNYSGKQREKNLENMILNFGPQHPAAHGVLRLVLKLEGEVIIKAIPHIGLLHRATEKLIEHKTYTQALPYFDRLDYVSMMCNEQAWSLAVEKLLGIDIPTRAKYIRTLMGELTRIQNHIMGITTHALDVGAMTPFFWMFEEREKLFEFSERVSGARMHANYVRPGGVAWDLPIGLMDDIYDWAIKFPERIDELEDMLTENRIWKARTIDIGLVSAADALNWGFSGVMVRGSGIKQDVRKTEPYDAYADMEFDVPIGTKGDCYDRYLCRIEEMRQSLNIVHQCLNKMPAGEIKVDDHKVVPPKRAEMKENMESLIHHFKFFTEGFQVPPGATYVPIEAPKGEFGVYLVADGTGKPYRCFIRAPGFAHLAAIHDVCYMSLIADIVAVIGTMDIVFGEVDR

Q: Which results are given for `COc1cc2c(cc1OC)C(/C=C/c1ccc(N(C)C)cc1)=NCC2` [NPD6303]?
A: remaining activity at 0.125 µM [1]: 93.1%; remaining activity at 0.125 µM [2]: 103%; remaining activity at 0.313 µM [1]: 88%; remaining activity at 0.313 µM [2]: 83.6%; remaining activity at 0.625 µM [1]: 108%; remaining activity at 0.625 µM [2]: 106%; remaining activity at 1.5 µM [1]: 100%; remaining activity at 1.5 µM [2]: 100%; remaining activity at 3 µM [1]: 89.5%; remaining activity at 3 µM [2]: 82.5%; remaining activity at 15 µM (15 µM, wild-type C. elegans mitochondria, mean of replicates, read-out: percent (%) in vitro complex I activity relative to solvent control): 47.6%; remaining activity at 37.5 µM (37.5 µM, wild-type C. elegans mitochondria, mean of replicates, read-out: percent (%) in vitro complex I activity relative to solvent control): 15%; remaining activity at 75 µM (75 µM, wild-type C. elegans mitochondria, mean of replicates, read-out: percent (%) in vitro complex I activity relative to solvent control): 9.53%; activity at 100 µM (100 µM compound, relative to solvent control, mean (SEM), read-out: % Activity Complex I): 12.7%; Percent in vitro activity, Complex I (single replicate Rep1-Rep4) (100 μM of NPD compound, C. elegans mitochondria, individual biological replicates, 100 µM): 10.460% and 12.057% and 12.075%; activity at 100 µM (100 μM of NPD compound, C. elegans mitochondria, individual biological replicates, read-out: Percent in vitro activity, Complex I (single replicate Rep1-Rep4)): 16.4%; activity at 100 µM (100 μM of NPD compound, C. elegans mitochondria, mean of four biological replicates, read-out: Percent in vitro activity, Complex I (Mean)): 12.7%; activity at 0.0001 µM (C. elegans, dose 0.0001 µM, Mean of replicates, read-out: Complex I activity, dose-response data): 98.7%; Complex I activity, dose-response data (C. elegans, dose 0.0001 µM, individual replicates (Rep)): 97.469 and 99.188; activity at 0.0001 µM (C. elegans, dose 0.0001 µM, individual replicates (Rep), read-out: Complex I activity, dose-response data): 101%; activity at 0.0005 µM [3]: 100%; activity at 0.0005 µM [4]: 100%; activity at 0.001 µM (C. elegans, dose 0.001 µM, Mean of replicates, read-out: Complex I activity, dose-response data): 98.7%; Complex I activity, dose-response data (C. elegans, dose 0.001 µM, individual replicates (Rep)): 94.995 and 103.570; activity at 0.001 µM (C. elegans, dose 0.001 µM, individual replicates (Rep), read-out: Complex I activity, dose-response data): 101%; activity at 0.0025 µM (C. elegans, dose 0.0025 µM, Mean of replicates, read-out: Complex I activity, dose-response data): 103%; Complex I activity, dose-response data (C. elegans, dose 0.0025 µM, individual replicates (Rep)): 97.419 and 110.831; activity at 0.0025 µM (C. elegans, dose 0.0025 µM, individual replicates (Rep), read-out: Complex I activity, dose-response data): 106%; activity at 0.005 µM (C. elegans, dose 0.005 µM, Mean of replicates, read-out: Complex I activity, dose-response data): 99.6%; Complex I activity, dose-response data (C. elegans, dose 0.005 µM, individual replicates (Rep)): 94.468 and 104.617; activity at 0.005 µM (C. elegans, dose 0.005 µM, individual replicates (Rep), read-out: Complex I activity, dose-response data): 105%; activity at 0.013 µM (C. elegans, dose 0.013 µM, Mean of replicates, read-out: Complex I activity, dose-response data): 97.2%; Complex I activity, dose-response data (C. elegans, dose 0.013 µM, individual replicates (Rep)): 91.183 and 107.524; activity at 0.013 µM (C. elegans, dose 0.013 µM, individual replicates (Rep), read-out: Complex I activity, dose-response data): 98.9%; activity at 0.025 µM (C. elegans, dose 0.025 µM, Mean of replicates, read-out: Complex I activity, dose-response data): 97.1%; Complex I activity, dose-response data (C. elegans, dose 0.025 µM, individual replicates (Rep)): 90.226 and 107.714; activity at 0.025 µM (C. elegans, dose 0.025 µM, individual replicates (Rep), read-out: Complex I activity, dose-response data): 100%; activity at 0.063 µM (C. elegans, dose 0.063 µM, Mean of replicates, read-out: Complex I activity, dose-response data): 95.9%; Complex I activity, dose-response data (C. elegans, dose 0.063 µM, individual replicates (Rep)): 89.273 and 101.913; activity at 0.063 µM (C. elegans, dose 0.063 µM, individual replicates (Rep), read-out: Complex I activity, dose-response data): 103%; activity at 0.125 µM (C. elegans, dose 0.125 µM, Mean of replicates, read-out: Complex I activity, dose-response data): 93.1%; Complex I activity, dose-response data (C. elegans, dose 0.125 µM, individual replicates (Rep)): 87.998 and 93.858; activity at 0.125 µM (C. elegans, dose 0.125 µM, individual replicates (Rep), read-out: Complex I activity, dose-response data): 103%; activity at 0.313 µM (C. elegans, dose 0.313 µM, Mean of replicates, read-out: Complex I activity, dose-response data): 88%; Complex I activity, dose-response data (C. elegans, dose 0.313 µM, individual replicates (Rep)): 86.077 and 96.329; activity at 0.313 µM (C. elegans, dose 0.313 µM, individual replicates (Rep), read-out: Complex I activity, dose-response data): 83.6%; activity at 0.625 µM (C. elegans, dose 0.625 µM, Mean of replicates, read-out: Complex I activity, dose-response data): 108%; Complex I activity, dose-response data (C. elegans, dose 0.625 µM, individual replicates (Rep)): 108.371 and 107.823; activity at 0.625 µM (C. elegans, dose 0.625 µM, individual replicates (Rep), read-out: Complex I activity, dose-response data): 106%; activity at 1.5 µM [3]: 100%; activity at 1.5 µM [4]: 100%; activity at 3 µM (C. elegans, dose 3 µM, Mean of replicates, read-out: Complex I activity, dose-response data): 89.5%
